Columns and labels:
[1] = target: T1, CXCR4 (Mus musculus, UniProt P70658); assay: CXCR4-dependent mouse splenocyte migration to CXCL12; type: cell-based; details: 100 nM CXCL12
T1 construct: endogenous in cells; host or cells: mouse splenocytes
Procedure: Splenocyte ctx and 100 nM CXCL12 were used.

[2] = target: T2, FPR (Mus musculus, UniProt P33766); assay: FPR-dependent mouse BM neutrophil chemotaxis to fMLP; type: cell-based; details: 100 nM fMLP
T2 construct: endogenous in cells; host or cells: mouse bone-marrow neutrophils
T2 sequence (P33766 1-364): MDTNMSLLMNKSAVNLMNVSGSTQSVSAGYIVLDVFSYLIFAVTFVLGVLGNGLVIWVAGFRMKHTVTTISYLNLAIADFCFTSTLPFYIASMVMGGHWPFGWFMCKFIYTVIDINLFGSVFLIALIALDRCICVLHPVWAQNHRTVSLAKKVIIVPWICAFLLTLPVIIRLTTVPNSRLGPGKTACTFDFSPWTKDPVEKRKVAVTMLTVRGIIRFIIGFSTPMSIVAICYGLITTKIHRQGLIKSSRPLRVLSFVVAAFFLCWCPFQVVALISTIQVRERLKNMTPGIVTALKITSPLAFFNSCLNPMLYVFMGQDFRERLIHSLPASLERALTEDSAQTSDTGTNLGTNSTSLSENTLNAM
Procedure: Neutrophil ctx and 100 nM fMLP were used.

[3] = tested on: leukocyte infiltration of CNS in EAE; assay: Leukocyte infiltration of CNS in EAE; type: in vivo, mouse; details: EAE mice
[4] = tested on: experimental autoimmune encephalomyelitis (EAE); assay: Clinical EAE in vivo (MOG 35-55 induced); details: mouse; for Onset of EAE / Animals that developed EAE (disease incidence): subcutaneous; for Onset of EAE: 10% captisol
[5] = target: T3, mouse CMKLR1 (Mus musculus, UniProt P97468); assay: Inhibition of chemerin-triggered mouse CMKLR1/L1.2 cell migration; type: cell-based; details: 1 nM chemerin
T3 construct: expressed in transfected cells; host or cells: L1.2 cells
T3 sequence (P97468 1-371): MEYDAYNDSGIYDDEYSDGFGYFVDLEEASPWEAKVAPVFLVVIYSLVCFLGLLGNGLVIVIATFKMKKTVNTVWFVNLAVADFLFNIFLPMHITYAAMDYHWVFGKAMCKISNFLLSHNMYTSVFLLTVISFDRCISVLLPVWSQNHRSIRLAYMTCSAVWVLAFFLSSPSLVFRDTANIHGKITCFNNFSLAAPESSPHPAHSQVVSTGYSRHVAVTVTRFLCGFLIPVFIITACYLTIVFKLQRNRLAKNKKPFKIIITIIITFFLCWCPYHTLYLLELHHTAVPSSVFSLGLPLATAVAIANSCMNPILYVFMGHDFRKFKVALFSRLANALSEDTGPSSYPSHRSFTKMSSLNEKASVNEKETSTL
Procedure: 2-(alpha-Naphthoyl)ethyltrimethyl ammonium iodide (aNETA) was tested for inhibition of chemerin-triggered mouse CMKLR1/L1.2 cell migration. mCMKLR1/L1.2 ctx and 1 nM chemerin were used. The assay was performed in 0.5% BSA, buffer (10% FBS), or 100% human serum.

[6] = target: T4, CCR9 (Homo sapiens, UniProt P51686); assay: CCR9-dependent MOLT-4 migration to CCL25; type: cell-based; details: MOLT4 human T-cell line; 250 nM TECK
T4 construct: endogenous in cells; host or cells: MOLT-4 (human T-cell line)
T4 sequence (P51686 1-369): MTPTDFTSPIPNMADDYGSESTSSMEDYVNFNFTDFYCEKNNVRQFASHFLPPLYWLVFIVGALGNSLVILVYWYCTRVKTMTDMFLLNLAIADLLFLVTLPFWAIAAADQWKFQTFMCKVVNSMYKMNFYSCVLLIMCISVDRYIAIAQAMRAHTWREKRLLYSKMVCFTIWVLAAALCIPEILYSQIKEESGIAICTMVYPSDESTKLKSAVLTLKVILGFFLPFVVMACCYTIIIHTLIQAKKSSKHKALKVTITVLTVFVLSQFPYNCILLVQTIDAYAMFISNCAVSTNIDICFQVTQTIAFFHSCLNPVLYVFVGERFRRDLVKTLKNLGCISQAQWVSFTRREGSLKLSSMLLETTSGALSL
Procedure: MOLT4 cell ctx (human T-cell line) and 250 nM TECK were used.

[7] = target: T5, CXCR4 (Homo sapiens, UniProt P61073); assay: CXCR4-dependent MOLT-4 migration to CXCL12; type: cell-based; details: MOLT4 human T-cell line; 1 nM CXCL12
T5 construct: endogenous in cells; host or cells: MOLT-4 (human T-cell line)
Procedure: MOLT4 cell ctx (human T-cell line) and 1 nM CXCL12 were used.

[8] = target: T6, C5aR (Mus musculus, UniProt P30993); assay: C5aR-dependent mouse BM neutrophil chemotaxis to C5a; type: cell-based; details: 100 nM C5a
T6 construct: endogenous in cells; host or cells: mouse bone-marrow neutrophils
T6 sequence (P30993 1-351): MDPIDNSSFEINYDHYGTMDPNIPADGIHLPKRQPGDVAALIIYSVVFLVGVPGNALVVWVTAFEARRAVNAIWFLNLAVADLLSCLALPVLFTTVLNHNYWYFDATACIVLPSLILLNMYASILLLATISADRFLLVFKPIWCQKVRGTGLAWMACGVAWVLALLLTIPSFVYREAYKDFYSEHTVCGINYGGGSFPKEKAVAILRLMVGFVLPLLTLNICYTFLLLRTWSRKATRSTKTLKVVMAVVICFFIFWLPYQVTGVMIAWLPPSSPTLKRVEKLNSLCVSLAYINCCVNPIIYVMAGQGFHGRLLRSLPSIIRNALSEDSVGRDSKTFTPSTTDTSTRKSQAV
Procedure: Neutrophil ctx and 100 nM C5a were used.

[9] = target: T7, huCMKLR1 (Homo sapiens, UniProt Q99788); assay: Inhibition of chemerin-triggered huCMKLR1 association with beta-arrestin2 (PathHunter CHO-K1 enzyme fragment complementation); type: cell-based; design: host or cells: CHO-K1
T7 sequence (Q99788 1-373): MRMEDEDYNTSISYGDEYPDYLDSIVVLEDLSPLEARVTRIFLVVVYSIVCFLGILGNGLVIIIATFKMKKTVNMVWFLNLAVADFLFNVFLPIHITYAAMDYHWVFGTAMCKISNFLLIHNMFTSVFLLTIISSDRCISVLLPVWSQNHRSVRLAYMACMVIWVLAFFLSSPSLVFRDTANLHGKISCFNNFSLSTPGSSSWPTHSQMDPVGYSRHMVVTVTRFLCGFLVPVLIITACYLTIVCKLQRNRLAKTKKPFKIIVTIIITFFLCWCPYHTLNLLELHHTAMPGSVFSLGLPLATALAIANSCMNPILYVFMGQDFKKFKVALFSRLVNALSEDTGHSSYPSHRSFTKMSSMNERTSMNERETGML
Description: With reference to FIG. 1, early event in receptor internalization is ligand-triggered association with beta-arrestin2. This process turns off receptor signaling. Enzyme complementation can be used to measure CMKLR1 association with beta-arrestin2. In this assay β-Galactosidase is split into two complementary enzyme fragments, one is attached to CMKLR1, the other to beta-arrestin2. If ligand interaction with CMKLR1 promotes its association with β-arrestin2, the enzyme fragments join and become active. An assay, such as PathHunter® CHO-K1 CMKLR1 β-Arrestin GPCR Assays (DiscoverX, Inc., Fremont, Calif.) can provide a method for monitoring activation of the CMKLR1 GPCR receptor through arrestin recruitment in live cells. CMKLR1 cells are engineered to co-express a ProLink (PK)-tagged GPCR and the Enzyme Acceptor (EA)-tagged β-Arrestin fusion proteins. Upon GPCR activation, the two enzyme fragments are brought together, forming an active β-Gal enzyme through Enzyme Fragment Complementation (EFC). A LOPAC (Library of Pharmacologically Active Compounds) library (Sigma-Aldrich, St. Louis, Mo.) was screened for inhibition of chemerin-triggered […]1 association with βARR. Three hits were obtained from a primary screen of LOPAC library. […] The assay was performed in both buffer (10% FBS) or 100% human serum.

[10] = target: T7, huCMKLR1; assay: Inhibition of chemerin-triggered human CMKLR1/L1.2 cell migration; type: cell-based; design: expressed in transfected cells; host or cells: L1.2 cells; details: 1 nM chemerin
Procedure: 2-(alpha-Naphthoyl)ethyltrimethyl ammonium iodide (aNETA) was tested for inhibition of chemerin-triggered human CMKLR1/L1.2 cell migration. huCMKLR1/L1.2 ctx and 1 nM chemerin were used. The assay was performed in 0.5% BSA, buffer (10% FBS), or 100% human serum.

[11] = target: T8, CCR7 (Mus musculus, UniProt P47774); assay: CCR7-dependent mouse splenocyte migration to CCL19; type: cell-based; details: 100 nM CCL19
T8 construct: endogenous in cells; host or cells: mouse splenocytes
T8 sequence (P47774 25-378): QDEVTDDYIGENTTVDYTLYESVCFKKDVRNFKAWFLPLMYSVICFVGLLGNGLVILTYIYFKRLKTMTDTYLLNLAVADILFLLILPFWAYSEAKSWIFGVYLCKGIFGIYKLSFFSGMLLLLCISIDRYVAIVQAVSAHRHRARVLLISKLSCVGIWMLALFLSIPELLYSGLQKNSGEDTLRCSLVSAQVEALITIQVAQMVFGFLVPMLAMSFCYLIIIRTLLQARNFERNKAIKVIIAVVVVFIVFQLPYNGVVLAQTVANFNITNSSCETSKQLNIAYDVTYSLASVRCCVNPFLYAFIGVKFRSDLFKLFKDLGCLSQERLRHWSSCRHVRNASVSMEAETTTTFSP
Procedure: Splenocyte ctx and 100 nM CCL19 were used.

[12] = tested on: huCMKLR1/βARR CHO, huCMKLR1/L1.2 cell lines and splenocytes; assay: In vitro cytotoxicity, annexin V FITC / propidium iodide assay; type: cell-based; details: 90 minute incubation at 37° C., huCMKLR1/L1.2, splenocytes
Procedure: The in vitro cytotoxicity of aNETA can be determined with an annexin V FITC assay kit. […] The analysis can be performed with a FITC-conjugated annexin-V, which has a strong affinity for extracellular phosphatidylserines, and the fluorescent intercalating agent propidium iodide (PI).
With reference to FIG. 11, cell lines (huCMKLR1/βARR CHO and huCMKLR1/L1.2) and splenocytes were used. aNETA was tested with 90 minute incubation at 37° C.

T5 sequence (P61073 whole entry): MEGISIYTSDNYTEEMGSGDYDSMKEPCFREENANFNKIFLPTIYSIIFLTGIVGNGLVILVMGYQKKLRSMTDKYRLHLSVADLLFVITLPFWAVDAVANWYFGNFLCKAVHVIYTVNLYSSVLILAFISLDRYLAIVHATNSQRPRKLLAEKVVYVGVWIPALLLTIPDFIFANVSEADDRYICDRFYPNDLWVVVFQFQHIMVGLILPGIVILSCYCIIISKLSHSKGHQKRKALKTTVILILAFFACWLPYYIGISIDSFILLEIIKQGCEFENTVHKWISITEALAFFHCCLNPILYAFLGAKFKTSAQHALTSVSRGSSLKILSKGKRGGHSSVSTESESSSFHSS
T1 sequence (P70658 whole entry): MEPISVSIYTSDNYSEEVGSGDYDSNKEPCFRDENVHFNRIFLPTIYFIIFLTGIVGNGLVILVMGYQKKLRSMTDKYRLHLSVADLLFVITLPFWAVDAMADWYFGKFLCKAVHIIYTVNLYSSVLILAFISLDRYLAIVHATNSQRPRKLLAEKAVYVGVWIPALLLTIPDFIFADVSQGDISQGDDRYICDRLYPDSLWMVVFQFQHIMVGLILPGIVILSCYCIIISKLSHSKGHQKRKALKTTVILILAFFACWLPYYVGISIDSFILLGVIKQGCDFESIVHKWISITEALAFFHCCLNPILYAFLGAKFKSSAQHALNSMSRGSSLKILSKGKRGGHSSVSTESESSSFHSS

Inhibition of CXCR4-dependent mouse splenocyte migration to CXCL12 [1]: does not inhibit
Inhibition of FPR-dependent mouse BM neutrophil chemotaxis to fMLP [2]: does not inhibit
IC50 ([5]; 0.5% BSA): 9600 nM
IC50 ([5]; 100% human serum): 1200 nM
IC50 ([5]; buffer (10% FBS)): 1100 nM
Inhibition of CCR9-dependent MOLT-4 migration to CCL25 [6]: does not inhibit
Inhibition of CXCR4-dependent MOLT-4 migration to CXCL12 [7]: does not inhibit
Inhibition of C5aR-dependent mouse BM neutrophil chemotaxis to C5a [8]: does not inhibit
IC50 ([9]; 100% human serum, huCMKLR1/βARR CHO cells, 7 nM chemerin, read-out: IC50, inhibition of chemerin-triggered huCMKLR1 association with βARR): 620 nM
IC50 ([9]; buffer (10% FBS), huCMKLR1/βARR CHO cells, 7 nM chemerin, read-out: IC50, inhibition of chemerin-triggered huCMKLR1 association with βARR): 350 nM
IC50 ([9]; in vitro cell-based bioassay, read-out: IC50, inhibition of chemerin mediated beta-arrestin2 association with CMKLR1): ~350 nM
IC50 ([10]; 0.5% BSA): 1200 nM
IC50 ([10]; 100% human serum): 1300 nM
IC50 ([10]; buffer (10% FBS)): 1200 nM
Inhibition of CCR7-dependent mouse splenocyte migration to CCL19 [11]: does not inhibit
SMILES: C[N+](C)(C)CCC(=O)c1cccc2ccccc12.[I-] [aNETA, 2-(alpha-naphthoyl)ethyltrimethyl ammonium iodide]
Leukocyte infiltration of the CNS compared to vehicle ([3]; daily 10 mg/kg): fewer leukocytes present
Leukocytes in the spleen compared to vehicle ([3]; daily 10 mg/kg and 3 mg/mg): more leukocytes present
Onset of EAE ([4]; 1 mg/kg daily): 17.8 days post-immunization
Animals that developed EAE (disease incidence) ([4]; 3 mg/kg daily, 3/16): 19%
Onset of EAE ([4]; 10 mg/kg daily): 26 days post-immunization
Animals that developed EAE (disease incidence) ([4]; 10 mg/kg daily, 1/16): 7%
Effect on onset of EAE ([4]; 10 mg/kg s.c. daily for 8 days, then every other day): significantly delayed
In vitro cytotoxicity (annexin V / PI) [12]: does not appear to be acutely toxic

— US9265738B2, “Small molecule CMKLR1 antagonists in demyelinating disease” (The Board of Trustees of the Leland Stanford Junior …, priority 2012, dated 2016)
